# Results: patent US5576296A, “Galanin antagonist” (priority 1991, dated 1996)
# Square brackets hold non-standard residues; d marks the D form. Ends that are not written are not given here. Peptide text beside a SMILES is read from it.
# Molecular target: galanin receptor
# Assay: Displacement of 125I-galanin, membranes from rat hypothalamus
# Type: binding
# Settings: displacement experiments in rat hypothalamus, 125I-galanin
# Method: Adult male rats (Sprague-Dawley, 180-200 g) were decapitated, the hypothalami quickly dissected and homogenized (10% mass/vol.) in 0.05M TRIS-Cl buffer, pH 7.4. The homogenate was diluted tenfold and centrifuged at 1000 × g for 10 min. The supernatant was centrifuged at 10,000 × g for 45 min and the pellet resuspended in 5 mM Hepes buffered Krebs-Ringer solution (137 mM NaCl, 2.68 mM KCl, 1.8 mM CaCl2 1 g/1 glucose), pH 7.4 to yield a final protein concentration of 1.0-1.5 mg/ml.
# Displacement experiments were carried out in a final volume of 400 μl of Hepes-buffered (5 mM) Krebs-Ringer solution, 0.05% (w/v) of BSA (pH 7.4 ) supplemented with bacitracin (1 mg/ml ) in the presence of 0.1-0.2 nM 1251-galanin, the membrane preparation from rat hypothalami and increasing concentrations (10-12, 10^-6M) of unlabeled galanin or of other galanin recepto-ligands. Samples were incubated for 30 min at 37° C. Incubation was terminated by the addition of 10 ml of ice-cold Hepes-buffered Krebs-Ringer solution, followed by rapid filtration over Whatman GF/C filters, precoated for 5-6 hours in 0.3% (v/v) of polyethylencimine solution. The filters were washed with 10 ml of assay solution. Radioactivity retained on the filters was determined in a Packard gamma counter. Specific binding was defined as that displaceable by 1 μM galanin.
# The 1C50 values of the displacing ligands were calculated by fitting of the experimental data on a Macintosh SE by means of a nonlincar least squares method using the program "KaleidaGraph".
row,Compound,IC50
1,"GWTLNSAGYLLGPALALALA-NH2 [M 38, Galanin(1-13)-AlaLeuAlaLeuAlaLeuAla amide]",0.2 nM
2,"CC(C)C[C@H](NC(=O)[C@H](CC(C)C)NC(=O)[C@H](Cc1ccc(O)cc1)NC(=O)CNC(=O)[C@H](C)NC(=O)[C@H](CO)NC(=O)[C@H](CC(N)=O)NC(=O)[C@H](CC(C)C)NC(=O)[C@@H](NC(=O)[C@H](Cc1c[nH]c2ccccc12)NC(=O)CN)[C@@H](C)O)C(=O)NCC(=O)N1CCC[C@H]1C(=O)N[C@@H](CCCCNC(=O)[C@@H]1CCCN1C(=O)[C@H](CC(C)C)NC(=O)[C@H](Cc1ccccc1)NC(=O)CNC(=O)CNC(=O)[C@@H](N)Cc1ccc(O)cc1)C(N)=O [M34,A, Galanin(1-13)-Lys amide (Pro-Leuenkephalin(5-1))]",10 nM
3,"GWTLNSAGYLLGPPPQQFFGLM-NH2 [M37, Galanin(1-12)-ProProPro-SP(5-11) amide]",40 nM
4,"GWTLNSAGYLLGARHYINLITRQRY-NH2 [M 88, Galanin(1-12)-Ala-NPY(25-36) amide]",1 nM
5,"CC(C)C[C@H](NC(=O)[C@H](CC(C)C)NC(=O)[C@@H](Cc1c[nH]c2ccccc12)NC(=O)[C@H](Cc1ccccc1)NC(=O)[C@@H](Cc1c[nH]c2ccccc12)NC(=O)[C@H](CCC(N)=O)NC(=O)[C@H](CCC(N)=O)NC(=O)[C@@H]1CCCN1C(=O)[C@H](CCCCN)NC(=O)[C@@H]1CCCN1C(=O)[C@@H](CCCNC(=N)N)NC(=O)[C@@H]1CCCN1C(=O)CNC(=O)[C@H](CC(C)C)NC(=O)[C@H](CC(C)C)NC(=O)[C@H](Cc1ccc(O)cc1)NC(=O)CNC(=O)[C@H](C)NC(=O)[C@H](CO)NC(=O)[C@H](CC(N)=O)NC(=O)[C@H](CC(C)C)NC(=O)[C@@H](NC(=O)[C@H](Cc1c[nH]c2ccccc12)NC(=O)CN)[C@@H](C)O)C(N)=O [C 7, Galanin(1-12)-Pro-Spantide amide] (H-GWTLNSAGYLLGP[dR]PKPQQ[dW]F[dW]LL-NH2; N-terminus assumed)",0.2 nM
6,"GWTLNSAGYLLGPPPALALA-NH2 [M 40, Galanin(1-12)- -ProProProAlaLeuAlaLeuAla amide]",13 nM
7,"GWTLNSAGYLLGPPGFSPFR-NH2 [M20, Galanin(1-13)-Bradykinin(3-9) amide]",1 nM
8,"CC(C)C[C@H](NC(=O)[C@H](CC(C)C)NC(=O)[C@H](Cc1ccc(O)cc1)NC(=O)CNC(=O)[C@H](C)NC(=O)[C@H](CO)NC(=O)[C@H](CC(N)=O)NC(=O)[C@H](CC(C)C)NC(=O)[C@@H](NC(=O)[C@H](Cc1c[nH]c2ccccc12)NC(=O)CN)[C@@H](C)O)C(=O)NCC(=O)N1CCC[C@H]1C(=O)N1CCC[C@H]1C(=O)N1CCC[C@H]1C(=O)NCC(=O)N[C@@H](Cc1ccccc1)C(=O)N[C@@H](CO)C(=O)N1CCC[C@H]1C(=O)N[C@@H](Cc1ccccc1)C(=O)N[C@@H](CCCNC(=N)N)C(N)=O [M 35, Galanin(1-13)-Bradykinin(2-9) amide]",0.2 nM
9,"CC[C@H](C)[C@H](NC(=O)[C@H](Cc1ccc(O)cc1)NC(=O)[C@H](Cc1c[nH]cn1)NC(=O)[C@H](CCCNC(=N)N)NC(=O)[C@@H]1CCCN1C(=O)CNC(=O)[C@H](CC(C)C)NC(=O)[C@H](CC(C)C)NC(=O)[C@H](Cc1ccc(O)cc1)NC(=O)CNC(=O)[C@H](C)NC(=O)[C@H](CO)NC(=O)[C@H](CC(N)=O)NC(=O)[C@H](CC(C)C)NC(=O)[C@@H](NC(=O)[C@H](Cc1c[nH]c2ccccc12)NC(=O)CN)[C@@H](C)O)C(=O)N[C@@H](CC(N)=O)C(=O)N[C@@H](CC(C)C)C(=O)N[C@H](C(=O)N[C@H](C(=O)N[C@@H](CCCNC(=N)N)C(=O)N[C@@H](CCC(N)=O)C(=O)N[C@@H](CCCNC(=N)N)C(=O)N[C@@H](Cc1ccc(O)cc1)C(N)=O)[C@@H](C)O)[C@@H](C)CC [M 32, Galanin(1-13)-NPY(25-36) amide]",0.05 nM
10,"GWTLNSAGYLLGPPPYGGFL-NH2 [M 36, Galanin(1-12)-ProProPro-Leuenkephalin(1-5) amide]",40 nM
11,"GWTLNSAGYLLGPPPLFGGY-NH2 [M36,A, Galanin(1-12)-ProProPro-Leuenkephalin(5-1) amide]",20 nM

# Same assay, conditions: membranes from rat hypothalami
row,Compound,"Displacement curves, rat versus porcine galanin"
1,"Rat galanin: galanin of rat sequence, unlabeled displacer [reference compound]",indistriguishable displacement curves

# Tested on: galanin receptor
# Assay: Displacement of 125I-galanin from membranes of Rin m 5F cells
# Type: binding, rat
# Settings: Rin m 5F membranes, read-out: IC50
# Method: 4) Ligand binding studies were conducted. Displacement of ^125 I-galanin by galanin, galanin fragment (1-13), Substance P fragment (4-11), galanin fragment (1-13) + Substance P fragment (4-11) in equimolar concentrations and the peptides of the invention M15, M35 and M34, A was studied.
# Synthetic porcine galanin(1-29) was iodinated by chloramine-T-method to yield ^125 I-monoiodo-Tyr^26 -porcine galanin (specific activity 1800-2000 Ci/mmol), (as described by Land T., et al in: Methods in Neurosciences, Ed. M. Conn, 5, 1991, 225-234), and employed in ligand binding studies carried out at equilibrium.
# The establishment and cell culture of Rin m 5F (a rat pancreatic β-tumor cell-line) cells have been described earlier (Gazdav A. F., et. al. Proc. Natl. Acad. Sci. USA, 77 (1980) 3519-3523). Briefly, the cells were grown in RPMI-1640 (Gibco) medium containing 10% (v/v) fetal calf serum, 2.06 mM L-gluthamine, 100 IU/ml penicillin and 100 μg/ml streptomycin in 10% CO2 -90% air 37° C. They were passaged every 5 days. The cells were detached from the surface of the bottles using 0.25% trypsin containing 1 mM EDTA and centrifuged at 2000 × g for 5 min at 4° C. The pellet was exposed for 15 min to hypoosmotic 5 mM HEPES buffer (pH 7.4). The suspension was centrifuged at 20000 × g for 15 min, the resulting pellet was resuspended in bacitracin-containing ([…]) 5 mM HEPES-buffered Krebs-Ringer solution (137 mM NaCl, […], 1.8 mM CaCl2, 1 g/1 glucose), pH 7.4, and used immediately in equilibrium binding experiments.
# Displacement experiments were carried out in a final volume of 400 μl of bacitracin-containing (1 mg/ml) HEPES-buffered (5 mM) Krebs-Ringer solution, 0.05% (w/v) of BSA (pH 7.4) in the presence of 0.1-0.2 nM ^125 I-galanin, the membrane preparation and the increasing concentrations (10^-12 -10^-6 M) of unlabeled porcine galanin or of other galanin receptor ligands. Samples were incubated for 30 min at 37° C. Incubation was terminated by the addition of 10 ml of ice-cold HEPES-buffered Krebs-Ringer solution, followed by rapid filtration over Whatman GF/C filters, precoated for 5-6 hours in 0.3% (v/v) of polyethyleneimine solution. Filters were washed with 10 ml of assay solution. Radioactivity retained on the filters was determined in a Packard gamma counter. Specific binding was defined as that displaceable by 1 μM galanin (or appropriate concentration of a displacer).
# The IC50 values of the displacing ligands were calculated from the computer-generated IC50 values as described by Land, T., et. al. (ibid).
# Fitting of the experimental data was carried out on a Macintosh SE by means of a nonlinear least squares method using the Macintosh program "KaleidGraph".
row,Compound,IC50
1,"CC(C)C[C@H](NC(=O)[C@H](CC(C)C)NC(=O)[C@H](Cc1ccc(O)cc1)NC(=O)CNC(=O)[C@H](C)NC(=O)[C@H](CO)NC(=O)[C@H](CC(N)=O)NC(=O)[C@H](CC(C)C)NC(=O)[C@@H](NC(=O)[C@H](Cc1c[nH]c2ccccc12)NC(=O)CN)[C@@H](C)O)C(=O)NCC(=O)N1CCC[C@H]1C(=O)N[C@@H](CCCCNC(=O)[C@@H]1CCCN1C(=O)[C@H](CC(C)C)NC(=O)[C@H](Cc1ccccc1)NC(=O)CNC(=O)CNC(=O)[C@@H](N)Cc1ccc(O)cc1)C(N)=O [M34,A, Galanin(1-13)-Lys amide (Pro-Leuenkephalin(5-1))]",10 nM
2,"CC(C)C[C@H](NC(=O)[C@H](CC(C)C)NC(=O)[C@H](Cc1ccc(O)cc1)NC(=O)CNC(=O)[C@H](C)NC(=O)[C@H](CO)NC(=O)[C@H](CC(N)=O)NC(=O)[C@H](CC(C)C)NC(=O)[C@@H](NC(=O)[C@H](Cc1c[nH]c2ccccc12)NC(=O)CN)[C@@H](C)O)C(=O)NCC(=O)N1CCC[C@H]1C(=O)O [Galanin fragment (1-13), reference compound]",100 nM
3,"CC(C)C[C@H](NC(=O)[C@H](CC(C)C)NC(=O)[C@H](Cc1ccc(O)cc1)NC(=O)CNC(=O)[C@H](C)NC(=O)[C@H](CO)NC(=O)[C@H](CC(N)=O)NC(=O)[C@H](CC(C)C)NC(=O)[C@@H](NC(=O)[C@H](Cc1c[nH]c2ccccc12)NC(=O)CN)[C@@H](C)O)C(=O)NCC(=O)N1CCC[C@H]1C(=O)N1CCC[C@H]1C(=O)N1CCC[C@H]1C(=O)NCC(=O)N[C@@H](Cc1ccccc1)C(=O)N[C@@H](CO)C(=O)N1CCC[C@H]1C(=O)N[C@@H](Cc1ccccc1)C(=O)N[C@@H](CCCNC(=N)N)C(N)=O [M 35, Galanin(1-13)-Bradykinin(2-9) amide]",0.1 nM

# Same assay, conditions: Rin m 5F membranes, read-out: IC50 (no displacement)
row,Compound,IC50
1,"Substance P fragment (4-11): fragment 4-11 of Substance P (PQQFFGLM; ends and bridges not checked; UniProt P20366 61-68, looked up, fragment) [reference compound]",> 10000 nM
